Results: publication PMC3920557 (The Journal of Experimental Medicine, 2014)
Ends that are not written are not given here.

Key:
OB1 B cells = assay: ERK1/2 phosphorylation in OB1 B cells; format: cell-based, mouse; details: 0.5 µM, 1 and 3 min; AGA 17-mer 3 min (Fig. 2 B)
[1] = tested on: OB1-MHC class II GFP B cells; assay: Peptide internalization by confocal microscopy, OB1 MHC II GFP B cells; format: cell-based, mouse; details: Alexa Fluor 647-conjugated versions, 1 µM, 10 min, washed, confocal microscopy (Fig. 1 F)
[2] = Solubility and aggregation of peptide; format: physicochemical

In the case of FDKLPGAGASIEAQGGK [AGA 17-mer], the “ERK1/2 phosphorylation, nested peptides” value (OB1 B cells) is reported as “did not stimulate” and the “antigen internalization in OB1-MHC class II GFP B cells” value [1] is reported as “did not detect any”.
In the case of FDKLPGFGDSIEAQGGK [FGD 17-mer], the water solubility [2] is reported as “water-soluble”.
